According to patent publication US20240366514A1, “PHARMACEUTICAL COMPOSITIONS OF OZANIMOD” (ZYDUS LIFESCIENCES LIMITED, priority 2021, published 2024):

Test system: TNBS induced colitis model in rat
Assay: Pharmacodynamic (PD) study in TNBS induced colitis model in rat
Assay type: in vivo, Wistar rat male
Method: However, these differences in PK parameters were not observed in Pharmacodynamic (PD) study (Experiment 02) conducted in TNBS induced colitis model in rat. […] In this study, the efficacy parameters measured were colon weight to length ratio, colonic […] score (which includes sum of Adhesion score, Stricture score, Ulcer, Wall thickness) and Lymphocyte count. Colon weight to length ratio and macroscopic colon disease score were determined at the end of the study, whereas Lymphocyte count in circulation relative to vehicle treated TNBS challenged diseased animals (Vehicle control) was assessed 24 h after the last dose. […] The reasons for the similar efficacy response even at the differences in PK profile between both the formulations could be due to receptor saturation of S1P1 receptors overexpressed at the intestine at the dose of 1 mg/kg administered in both the treatment groups. […] The cardiac side effects such as Bradyarrhythmia and Atrioventricular Conduction Delays, which are associated with high Cmax from immediate-release formulation, get reduced or eliminated with the use of delayed-release formulation without affecting efficacy. Thus, the delayed-release formulation may also offer the skipping or reduce frequency of up-titration scheme.

Structure (SMILES): Nc1ccc(O)c(C(=O)O)c1 [Mesalamine]
- Lymphocyte count, % Inhibition (Mean ± SEM) (24 h after the last dose, relative to vehicle treated TNBS challenged animals): 13.39 ± 21.66%
- inhibition at 150 mg/kg (144 h, oral once a day for 6 days, IR 1 mg/kg, DR 0.89 mg/kg, Mesalamine 150 mg/kg, versus vehicle control, read-out: Colon Macroscopic Score, % Inhibition (Mean ± SEM)): 56.5 ± 5.02%
- Lymphocyte count (10^3/μL), Observation (Mean ± SEM) (circulating, 24 h after the last dose, IR 1 mg/kg, DR 0.89 mg/kg, Mesalamine 150 mg/kg oral for 6 days): 7.6 ± 1.9 10^3/μL
- Colon Weight to Length ratio (mg/cm), Observation (Mean ± SEM) (oral once a day for 6 consecutive days, IR 1 mg/kg, DR 0.89 mg/kg, Mesalamine 150 mg/kg, end of study): 120.44 ± 4.22 mg/cm
- Colon Macroscopic Score [Sum of scores of Adhesion score, Stricture score, Ulcer, Wall thickness], Observation (Mean ± SEM) (oral once a day for 6 days, IR 1 mg/kg, DR 0.89 mg/kg, Mesalamine 150 mg/kg, end of study): 2.5 ± 0.29
- Colon Weight to Length ratio, % Inhibition (Mean ± SEM) (oral once a day for 6 days, IR 1 mg/kg, DR 0.89 mg/kg, Mesalamine 150 mg/kg, versus vehicle control): 41.75 ± 2.04%
